Data from publication PMC7142304, “Oxadiazole-Containing Macrocyclic Peptides Potentiate Azole Activity against Pathogenic Candida Species” (mSphere, 2020).
In brackets after ≈: the same amount, converted by molar mass.

Key:
[1] = tested on: C. glabrata, C. auris, C. tropicalis, and C. parapsilosis; assay: Fluconazole MIC against azole-resistant non-albicans Candida panel; type: cell-based, Candida species; details: in the absence of macrocyclic peptides; range over the four strains; YPD, 30°C
Description: (D) Fluconazole dose-response assays for diverse Candida species were conducted in YPD medium without (−) or with the indicated macrocycle (62.5 μM). Growth was measured by absorbance at 600 nm after 24 h (C. parapsilosis [CpLC573], C. auris [Ci 6684, CauLC5083], and C. glabrata [BG2, CgLC1002]) or after 48 h (C. tropicalis [CtLC573]) at 30°C. Optical densities were averaged for duplicate measurements and normalized relative to the no-drug control well for each strain.
To evaluate the activity of the oxadiazole-containing macrocyclic peptides against other fungal pathogens, we tested a panel of azole-resistant non-albicans Candida species, including C. glabrata, C. auris, C. tropicalis, and C. parapsilosis. Dose-response assays were conducted using standard protocols ([14]) with a 2-fold dilution series of fluconazole, without or with JRF1197-2, JRF1198-2, or JRF1199-2 at 62.5 μM, a concentration that enhanced azole activity against C. albicans (Fig. 1).

[2] = tested on: ABC transporters Cdr1 and Cdr2; assay: Rhodamine-6G intracellular accumulation (efflux inhibition); type: cell-based; details: 30°C
Description: (A) The effect of JRF1199-1 and JRF1199-2 on filamentation of C. albicans (SN95, CaLC239) was monitored after incubation in YPD medium at 30°C or 39°C for 4 h with shaking. Images were taken by differential interference contrast microscopy. Representative fields from micrographs obtained at the same magnification for all images are presented. (B) C. albicans (Caf2-1, CaLC2742) was grown in YPD medium at 30°C for 3 h with or without 125 μM macrocycle or 10 μg/ml of beauvericin. A concentration of 1 μg/ml of rhodamine-6G was added to the cultures for another 30 min at 30°C. Cells were washed twice with phosphate-buffered saline (PBS), followed by fluorescence microscopy to monitor rhodamine-6G accumulation in cells. (C) The fluorescence of untreated cells or of cells treated with beauvericin or JRF1198-2 was quantitated by flow cytometry. Assays were performed using 250 μl of culture per well, and fluorescence was measured using the FL2 (phycoerythrin) channel in a CytoFLEX flow cytometer (Beckman Coulter Inc.) with at least 20,000 events acquired per sample. Events were gated to capture at least 90% of the entire population analyzed, discarding clumps/cellular debris. […] Growth was measured by absorbance at 600 nm after 24 h (C. parapsilosis [CpLC573], C. auris [Ci 6684, CauLC5083], and C. glabrata [BG2, CgLC1002]) or after 48 h (C. tropicalis [CtLC573]) at 30°C. […]

| Compound | MIC [1] | Mean Fluorescence (rhodamine-6G accumulation) ([2]; flow cytometry, FL2 channel, 3 h with 125 μM macrocycle or 10 μg/ml beauvericin, then 1 μg/ml rhodamine-6G for 30 min, at least 20,000 events) | Effect on rhodamine-6G accumulation ([2]; microscopy and flow cytometry, 125 μM macrocycle or 10 μg/ml beauvericin, YPD) |
| --- | --- | --- | --- |
| OC(Cn1cncn1)(Cn1cncn1)c1ccc(F)cc1F [fluconazole] | 32 to 256 µg/mL (≈ 104 to 836 µM) |  |  |
| beauvericin |  | 275895.3 | enhanced rhodamine-6G accumulation |
